Reference: ChEMBL document CHEMBL3804759, “Pharmacological Targeting of AMP-Activated Protein Kinase and Opportunities for Computer-Aided Drug Design” (J Med Chem, 2016)

Tests used:
[1] = molecular target: AMPK alpha1/beta2/gamma1 (Homo sapiens, UniProt O43741+P54619+Q13131); experiment: Binding affinity to human recombinant N-terminal AVI-tagged phosphorylated AMPK alpha1beta2gamma1 expressed in Escherichia coli BL21 cells after 1 to 10 mins by biolayer interferometry
[2] = molecular target: AMP-activated protein kinase (AMPK) alpha-1/beta-1/gamma-1 (Homo sapiens, UniProt P54619+Q13131+Q9Y478); experiment: Binding affinity to human recombinant N-terminal AVI-tagged phosphorylated AMPK alpha1beta1gamma1 expressed in Escherichia coli BL21 cells after 1 to 10 mins by biolayer interferometry
AMP-activated protein kinase (AMPK) alpha-1/beta-1/gamma-1, sequence (P54619 whole entry): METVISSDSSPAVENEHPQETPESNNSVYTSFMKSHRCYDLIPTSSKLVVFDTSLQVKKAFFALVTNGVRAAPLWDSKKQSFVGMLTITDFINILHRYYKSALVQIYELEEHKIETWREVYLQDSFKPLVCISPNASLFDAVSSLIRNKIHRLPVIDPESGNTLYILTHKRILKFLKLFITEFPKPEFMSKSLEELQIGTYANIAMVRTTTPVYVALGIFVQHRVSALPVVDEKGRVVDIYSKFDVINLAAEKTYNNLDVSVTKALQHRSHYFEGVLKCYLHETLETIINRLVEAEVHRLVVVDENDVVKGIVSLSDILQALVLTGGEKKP
AMP-activated protein kinase (AMPK) alpha-1/beta-1/gamma-1, sequence (Q9Y478 whole entry): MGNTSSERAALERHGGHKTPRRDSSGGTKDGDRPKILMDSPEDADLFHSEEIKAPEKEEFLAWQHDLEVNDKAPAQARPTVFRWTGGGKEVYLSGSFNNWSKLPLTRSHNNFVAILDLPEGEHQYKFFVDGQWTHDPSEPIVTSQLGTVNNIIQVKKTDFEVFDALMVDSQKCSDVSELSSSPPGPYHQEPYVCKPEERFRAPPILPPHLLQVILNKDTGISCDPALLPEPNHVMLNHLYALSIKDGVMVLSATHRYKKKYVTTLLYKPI
AMP-activated protein kinase (AMPK) alpha-1/beta-1/gamma-1, sequence (Q13131 whole entry): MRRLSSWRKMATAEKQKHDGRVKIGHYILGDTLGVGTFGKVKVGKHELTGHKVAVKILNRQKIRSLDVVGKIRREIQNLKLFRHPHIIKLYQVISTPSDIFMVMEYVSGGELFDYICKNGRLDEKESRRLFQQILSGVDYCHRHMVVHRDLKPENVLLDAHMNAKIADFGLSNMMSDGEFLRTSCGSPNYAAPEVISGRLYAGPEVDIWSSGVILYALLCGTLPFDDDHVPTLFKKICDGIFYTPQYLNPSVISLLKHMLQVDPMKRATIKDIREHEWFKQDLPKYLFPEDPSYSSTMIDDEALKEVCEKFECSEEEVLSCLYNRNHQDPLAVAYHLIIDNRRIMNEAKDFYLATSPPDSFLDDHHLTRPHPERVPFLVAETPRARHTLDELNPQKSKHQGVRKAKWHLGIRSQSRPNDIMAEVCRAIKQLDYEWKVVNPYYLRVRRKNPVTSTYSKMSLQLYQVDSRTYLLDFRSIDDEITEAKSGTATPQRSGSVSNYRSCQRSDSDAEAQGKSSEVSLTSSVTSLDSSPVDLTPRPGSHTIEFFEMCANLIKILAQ

[3] = tested on: HEK293; experiment: Selectivity ratio of FLAG-tagged wild type AMPK beta1 (unknown origin) expressed in HEK293 cells over FLAG-tagged wild type AMPK beta2 (unknown origin) expressed in HEK293 cells; assay type: cell-based; conditions: Homo sapiens

AMPK alpha1/beta2/gamma1, sequence (O43741 whole entry): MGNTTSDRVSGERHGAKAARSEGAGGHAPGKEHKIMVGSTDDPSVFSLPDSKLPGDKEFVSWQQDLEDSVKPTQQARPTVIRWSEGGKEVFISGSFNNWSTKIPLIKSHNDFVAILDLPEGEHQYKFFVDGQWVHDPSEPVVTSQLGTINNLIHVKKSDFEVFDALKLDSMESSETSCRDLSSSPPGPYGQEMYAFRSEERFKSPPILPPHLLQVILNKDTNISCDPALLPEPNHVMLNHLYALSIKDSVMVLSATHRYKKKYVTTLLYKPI
AMPK alpha1/beta2/gamma1, sequence (P54619 whole entry): as the sequence (P54619 whole entry) above
AMPK alpha1/beta2/gamma1, sequence (Q13131 whole entry): as the sequence (Q13131 whole entry) above

Kd [1]: 14.5 µM | Kd [2]: 0.51 µM
Structure (SMILES): N#Cc1c(O)c2c(-c3ccc(-c4ccccc4O)cc3)csc2[nH]c1=O
Selectivity ratio [3]: 30
